Data published in the Deep4Chem optical property database.
Each block holds one molecule with its values, some of them ahead of it.

Test: solvent given as SMILES

absorption maximum (in ClCCl): 346 nm
Structure (SMILES): c1ccc2c(c1)c1ccccc1c1ncncc21

absorption maximum (in C1CCOC1): 327 nm
Structure (SMILES): F[B-]1(F)Oc2ccccc2-c2n(-c3ccc(C(F)(F)F)cc3)c(-c3ccccc3)c(-c3ccccc3)[n+]21

absorption maximum (in CC#N): 640 nm
Structure (SMILES): F[B-]1(F)n2c(c(Sc3ccccc3)c3c2-c2ccccc2CC3)C=C2C(Sc3ccccc3)=C3CCc4ccccc4C3=[N+]21

absorption maximum (in C1CCOC1): 330 nm
Structure (SMILES): O=C(c1ccc(N2c3ccccc3Sc3ccccc32)cc1)c1ccc2sc3ccccc3c2c1

absorption maximum (in C1CCOC1): 730 nm
absorption maximum (in ClC(Cl)Cl): 731 nm
Structure (SMILES): COc1ccc(-c2cc3c(s2)=CC2=C(C(F)(F)F)c4cc5sc(-c6ccc(OC)cc6)cc5n4[B-](F)(F)[N+]=32)cc1

absorption maximum (in CC#N): 393 nm
absorption maximum (in CO): 397 nm
absorption maximum (in ClCCl): 393 nm
Structure (SMILES): Cc1ccc(-c2[nH]c(=O)n3c2-c2ccccc2C3=O)c(O)c1

absorption maximum (in CS(C)=O): 736 nm
Structure (SMILES): O=C(O)COc1cccc(-c2c3nc(cc4ccc([nH]4)c(-c4cccc(OCC(=O)O)c4)c4nc(cc5ccc2[nH]5)CC4)CC3)c1

absorption maximum (in ClCCl): 513 nm
Structure (SMILES): CCCCCCC1(CCCCCC)c2cc(-c3ccc(-c4ccc(-c5ccc(-c6ccc7c(c6)C(CCCCCC)(CCCCCC)c6cc(-n8c9ccccc9c9ccccc98)ccc6-7)s5)c5nsnc45)s3)ccc2-c2ccc(-n3c4ccccc4c4ccccc43)cc21

Structure (SMILES): c1ccncc1
absorption maximum (in CC1CCCCC1): 252 nm
absorption maximum (in ClC(Cl)Cl): 253 nm
absorption maximum (in O): 253 nm

absorption maximum (in ClC(Cl)Cl): 744 nm
Structure (SMILES): Cc1ccc(/C2=c3\cc/c(o3)=C(\c3ccc(C)cc3)c3ccc([nH]3)-c3ccc4n3[P-](=O)(=O)[N+]3=C(C=CC3=C4c3ccco3)c3ccc2[nH]3)cc1

absorption maximum (in CC#N): 411 nm
Structure (SMILES): CN(C)c1ccc(-c2nc3nc4ccccc4nc3n2-c2ccc(C(C)(C)C)cc2)cc1

Structure (SMILES): COc1ccc(-n2c3ccccc3c3cc(/C=C/C(=C(C#N)C#N)c4ccccc4)ccc32)cc1
absorption maximum (in C1CCOC1): 448 nm
absorption maximum (in CC#N): 444 nm
absorption maximum (in CC(C)=O): 445 nm
absorption maximum (in CCOC(C)=O): 443 nm
absorption maximum (in CO): 449 nm
absorption maximum (in CS(C)=O): 454 nm
absorption maximum (in Cc1ccccc1): 450 nm
absorption maximum (in ClC(Cl)Cl): 459 nm

absorption maximum (in C1CCOC1): 360 nm
absorption maximum (in C1COCCO1): 362 nm
absorption maximum (in CC#N): 354 nm
absorption maximum (in CCCCCO): 370 nm
absorption maximum (in CCCCO): 370 nm
absorption maximum (in CCCO): 368 nm
absorption maximum (in CCO): 369 nm
absorption maximum (in CO): 356 nm
absorption maximum (in COCCOC): 360 nm
absorption maximum (in ClC(Cl)Cl): 362 nm
absorption maximum (in ClCCl): 362 nm
absorption maximum (in OCCO): 356 nm
Structure (SMILES): O=C(O)c1c2ccccc2nc2ccccc12

absorption maximum (in ClCCl): 562 nm
Structure (SMILES): CC1=C(C)C(c2c(C)c(C)c3n2[B-](F)(F)[N+]2=C(C)C(C)=C(C)C2=C3)=[N+]2C1=Cc1c(C)c(C)c(C)n1[B-]2(F)F

Structure (SMILES): CC[N+]1(CC)CN2C(=N1)C(C(=O)O)=Cc1ccc(C)cc12
absorption maximum (in O): 370 nm

absorption maximum (in ClC(Cl)Cl): 427 nm
Structure (SMILES): CCCCn1c(=O)c2cc3ccc4cccc5ccc(c2c1=O)c3c45

absorption maximum (in ClCCl): 378 nm
Structure (SMILES): COc1cn2cc(-c3ccc(C#N)cc3)[n-][n+]2c1

Structure (SMILES): CC(C)(C)c1ccc(-c2c3ccccc3c3n2[B-](F)(F)[N+]2=Cc4c5ccccc5c(-c5ccc(C(C)(C)C)cc5)n4[B-](F)(F)[N+]2=C3)cc1
absorption maximum (in CC#N): 557 nm
absorption maximum (in CCCCCC): 568 nm
absorption maximum (in CN(C)C=O): 566 nm
absorption maximum (in Cc1ccccc1): 573 nm
absorption maximum (in ClCCl): 567 nm

absorption maximum (in C1CCOC1): 411 nm
Structure (SMILES): O=c1oc2cccc3c4cccc5ccc6c7cc(F)ccc7c1c(c23)c6c54

absorption maximum (in CC(C)(C)O): 393 nm
absorption maximum (in CC(C)CO): 390 nm
absorption maximum (in CC(C)O): 391 nm
absorption maximum (in CCCCO): 378 nm
absorption maximum (in CCCO): 367 nm
absorption maximum (in CCO): 364 nm
absorption maximum (in CN(C)C=O): 393 nm
absorption maximum (in CNC=O): 350 nm
absorption maximum (in CO): 354 nm
absorption maximum (in NC=O): 354 nm
absorption maximum (in O): 394 nm
Structure (SMILES): COCCOCCOCCOc1cc(C=O)c(OCCOCCOCCOC)cc1C=O

Structure (SMILES): COC(=O)C1=NNC(C(=O)OC)=C2c3ccccc3C(=O)c3ccccc3C12 (stereo unspecified)
absorption maximum (in CC#N): 391 nm

Structure (SMILES): N#Cc1cc(-n2c3ccccc3c3ccccc32)c(-n2c3ccccc3c3ccccc32)cc1C#N
absorption maximum (in C1CCOC1): 368 nm
absorption maximum (in CC#N): 367 nm
absorption maximum (in Cc1ccccc1): 375 nm
absorption maximum (in ClCCl): 364 nm

absorption maximum (in CO): 278 nm
Structure (SMILES): Cc1ccc2c(c1)nnn2-c1c(C#N)c2c(N)ncnc2n1[C@H]1C[C@H](O)[C@@H](CO)O1

absorption maximum (in CS(C)=O): 376 nm
absorption maximum (in ClCCl): 374 nm
Structure (SMILES): O=c1oc2ccccc2c2c1c(=O)oc1cc(O)ccc12

Structure (SMILES): Nc1ccc2c(c1)Cc1ccccc1-2
absorption maximum (in C1CCCCC1): 318 nm
absorption maximum (in C1COCCO1): 322 nm
absorption maximum (in CC#N): 325 nm
absorption maximum (in CC(C)O): 317 nm
absorption maximum (in CCCCCC): 318 nm
absorption maximum (in CCCCCCC): 317 nm
absorption maximum (in CCO): 317 nm
absorption maximum (in CCOC(C)=O): 325 nm
absorption maximum (in CCOCC): 318 nm
absorption maximum (in CO): 317 nm
absorption maximum (in ClCCl): 319 nm
absorption maximum (in O): 315 nm

Structure (SMILES): CCOC(=O)CN1C(=O)C2=C(c3ccc(C#N)cc3)N(CC(=O)OCC)C(=O)C2=C1c1ccc(C#N)cc1
absorption maximum (in CC#N): 473 nm
absorption maximum (in CS(C)=O): 480 nm
absorption maximum (in Cc1ccccc1): 482 nm

absorption maximum (in ClC(Cl)Cl): 355 nm
Structure (SMILES): Cc1ccccc1Oc1ccc2c3c(cccc13)C(=O)N(CCO)C2=O

absorption maximum (in ClCCl): 501 nm
Structure (SMILES): N#CC1N=c2cc3c4c(cccc4c2=NC1C#N)C(c1ccccc1)=C(c1ccccc1)O3 (stereo unspecified)

absorption maximum (in C1CCCCC1): 579.5 nm
absorption maximum (in CCOC(C)=O): 574 nm
Structure (SMILES): CC1=[N+]2C(=C(Oc3ccc4c(c3)CC[C@@H]3[C@@H]4CC[C@]4(C)C(=O)CC[C@@H]34)c3ccc(C)n3[B-]2(F)F)C=C1c1cc2n(c1)[B-](F)(F)[N+]1=CC=CC1=C2c1c(C)cc(C)cc1C

Structure (SMILES): CC(C)(C)c1ccc2c(c1)c1cc(C(C)(C)C)ccc1n2-c1ccc(-c2ccc3c(c2)C(=O)c2ccc(-c4ccc(-n5c6ccc(C(C)(C)C)cc6c6cc(C(C)(C)C)ccc65)cc4)cc2C3=O)cc1
absorption maximum (in Cc1ccccc1): 426 nm

absorption maximum (in CCOC(C)=O): 325 nm
Structure (SMILES): CCn1c(-c2ccc(-c3ccc4c(c3)C(c3ccccc3)(c3ccccc3)c3ccccc3-4)cc2)c(-c2ccc3ccccc3c2)c(-c2ccc3ccccc3c2)c1-c1ccc(-c2ccc3c(c2)C(c2ccccc2)(c2ccccc2)c2ccccc2-3)cc1

absorption maximum (in CO): 300 nm
Structure (SMILES): Oc1cccc(-c2nc(-c3ccccc3)c(-c3ccccc3)[nH]2)c1

absorption maximum (in CO): 784 nm
Structure (SMILES): CC1(C)C(/C=C/C2=C(Cl)C(=C/C=C3/N(Cc4ccc(F)cc4)c4ccccc4C3(C)C)/CCC2)=[N+](Cc2ccc(F)cc2)c2ccccc21

Structure (SMILES): F[B-]1(F)n2c(c3cccc4cccc2c43)=Nc2ccc3ccccc3[n+]21
absorption maximum (in C1CCOC1): 486 nm
absorption maximum (in CC#N): 481 nm
absorption maximum (in CCCCCC): 490 nm
absorption maximum (in Cc1ccccc1): 490 nm
absorption maximum (in ClCCl): 455 nm

Structure (SMILES): CC1(C)c2ccccc2-c2cc3c(cc21)N(c1ccc(-c2nc(-c4ccc(N5c6ccccc6C(c6ccccc6)(c6ccccc6)c6cc7c(cc65)C(C)(C)c5ccccc5-7)cc4)nc(-c4ccc(N5c6ccccc6C(c6ccccc6)(c6ccccc6)c6cc7c(cc65)C(C)(C)c5ccccc5-7)cc4)n2)cc1)c1ccccc1C3(c1ccccc1)c1ccccc1
absorption maximum (in Cc1ccccc1): 321 nm

Structure (SMILES): c1ccc(-c2nc(-c3ccccc3)nc(-c3ccc(-n4c5ccc(-c6ccc7sc8ccccc8c7c6)cc5c5cc(-c6ccc7sc8ccccc8c7c6)ccc54)cc3)n2)cc1
absorption maximum (in Cc1ccccc1): 377 nm

absorption maximum (in CC#N): 403 nm
absorption maximum (in CCO): 398 nm
absorption maximum (in O): 392 nm
Structure (SMILES): CC1=CC2=Nc3nc(C)[n+](C)cc3CN2C=C1

absorption maximum (in ClCCl): 349 nm
Structure (SMILES): CCCCn1c2ccc(C#N)cc2c2cc(C#N)ccc21

Structure (SMILES): CCCCCCCCN1c2ccc(C#Cc3ccc(OC)cc3)cc2Sc2cc(C=O)ccc21
absorption maximum (in C1CCOC1): 378 nm
absorption maximum (in CC#N): 380.01 nm
absorption maximum (in CCCCCC): 374 nm
absorption maximum (in CO): 351.11 nm
absorption maximum (in CS(C)=O): 383.45 nm
absorption maximum (in Cc1ccccc1): 383 nm
absorption maximum (in ClC(Cl)Cl): 382.5 nm

absorption maximum (in ClCCl): 317 nm
Structure (SMILES): COc1cc2c(cc1OC)C1=C[C@H](c3ccc(C)cc3)C3(C(C#N)=C(C#N)N1CC2)c1ccccc1-c1ccccc13

Structure (SMILES): CCc1c(C)[nH]c(C2=[N+]3C(=C(C)c4c(C)c(CC)c(C)n4[B-]3(F)F)c3ccccc32)c1C
absorption maximum (in C1CCOC1): 618 nm
absorption maximum (in CC#N): 610 nm
absorption maximum (in CCCCCC): 620 nm
absorption maximum (in CO): 613 nm
absorption maximum (in Cc1ccccc1): 625 nm
absorption maximum (in ClCCl): 619 nm

absorption maximum (in C1CCCCC1): 318 nm
absorption maximum (in CC#N): 308 nm
absorption maximum (in CCO): 309 nm
absorption maximum (in CCOC(C)=O): 317 nm
Structure (SMILES): COC(=O)c1nc(-c2cccc3ccccc23)oc1C

absorption maximum (in CC#N): 344 nm
Structure (SMILES): COc1ccc(-n2nc(C#N)c(N3CCCC3)n2)cc1OC

absorption maximum (in CCO): 341 nm
Structure (SMILES): O=Cc1ccc(-c2ccc(O)c(-c3nc4ccccc4s3)c2)o1

absorption maximum (in CC#N): 371 nm
Structure (SMILES): CN(C)c1ccc(-c2nc3nccnc3n2-c2ccccc2)cc1

Structure (SMILES): CC1=CC(C)=[N+]2C1=C(c1ccc(N(C)C)cc1)c1c(C)cc(/C=C/c3ccc(N(C)C)cc3)n1[B-]2(F)F
absorption maximum (in CCOCC): 591 nm

Structure (SMILES): O=C(N/N=C/c1ccccc1O)c1ccccc1O
absorption maximum (in C1CCOC1): 334 nm
absorption maximum (in CC#N): 335 nm
absorption maximum (in CC(C)=O): 331 nm
absorption maximum (in CCO): 400 nm
absorption maximum (in CN(C)C=O): 412 nm
absorption maximum (in CS(C)=O): 385 nm
absorption maximum (in ClCCl): 335 nm

Structure (SMILES): c1ccc(-c2nc(-c3ccccc3)nc(-c3ccc(-n4c5ccccc5c5cc(-n6c7ccccc7c7ccccc76)ccc54)c4c5ccccc5n(-c5ccccc5)c34)n2)cc1
absorption maximum (in Cc1ccccc1): 378.07 nm

Structure (SMILES): COc1nc(Nc2ccc3c4c(cccc24)C(=O)c2ccccc2-3)nc(OC)n1
absorption maximum (in CC#N): 413.91 nm
absorption maximum (in CC(C)O): 421.94 nm
absorption maximum (in CCCCOCCCC): 421.94 nm
absorption maximum (in CCOC(C)=O): 418.94 nm
absorption maximum (in CO): 419.99 nm
absorption maximum (in Cc1ccccc1): 426.99 nm

Structure (SMILES): CC1(C)c2cccc(-c3nc(-c4ccccc4)nc(-c4ccccc4)n3)c2Oc2c(-n3c4ccccc4c4ccccc43)cccc21
absorption maximum (in Cc1ccccc1): 341 nm
